Counter-ions that a name gives are not always drawn. Like-named read-outs stand apart in the source and are kept apart here. Each block holds one compound with its values, some of them ahead of it.
Experiments:
[1] = Pharmacokinetics of PEGylated protease inhibitor prodrugs in rats; assay type: in vivo, male Sprague-Dawley rats; parameters: AUCall / AUC: concentration or dose not given beside the values; settings: prodrug in plasma; for AUC / Cmax: mean ± SD; for Cmax: read-out: Cmax
Description: (§1) Pharmacokinetic analysis of protease inhibitors described herein was conducted. To evaluate the pharmacokinetics of PEGylated protease inhibitor conjugates with releasable lipophilic attachments, test compounds were administered to male Sprague-Dawley rats.
(§2) At various times following test article administration, serial blood samples were collected from indwelling jugular vein catheters and transferred to micro-tubes containing 7.5 μL of 20% w/v K2EDTA as an anticoagulant. Following processing of the blood samples to plasma (10 minutes at 10000 rpm, Centrifuge Model: Kubota 3500), plasma concentrations of the test article or corresponding PEGylated molecule released from the test article was measured using LC-MS/MS methods. Pharmacokinetic parameters were estimated using noncompartmental methods.
Table 3 presents a summary of pharmacokinetic parameters of PEGylated protease inhibitor prodrugs, wherein Cmax is the maximum (peak) concentration, AUCall represents the area under the concentration-time curve from zero to time of last concentration value, T½ is half life, and MRTlast is the mean residence time to last observable concentration

[2] = Pharmacokinetics of released PEGylated protease inhibitor following P.O. administration of prodrugs in rats; assay type: in vivo, male Sprague-Dawley rats; parameters: AUCall Mean: concentration or dose not given beside the values; C24 Mean: unit not given here; settings: rats (n = 4-5); for C24 Mean: concentration at 24 hours
Description: as §1, §2

[3] = male, Sprague-Dawley, rat, in vivo
[4] = male, Sprague-Dawley, rat, oral
[5] = mPEG5-atazanavir in plasma after PO administration of mPEG5-ATV or of the listed prodrug
[6] = mPEG3-atazanavir in plasma after PO administration of mPEG3-ATV or of the listed prodrug
[7] = mPEG6-atazanavir in plasma after PO administration of mPEG6-ATV or of the listed prodrug

Compound: COCCOCCOCCOCCOCCOC(=O)N[C@H](C(=O)N[C@@H](Cc1ccccc1)[C@H](CN(Cc1ccc(-c2ccccn2)cc1)NC(=O)[C@@H](NC(=O)OC)C(C)(C)C)OC(=O)[C@H](CC(C)C)NC(=O)[C@@H](N)Cc1ccccc1)C(C)(C)C [Phe-Leu-mPEG5-Atazanavir HCl, Phe-Leu-mPEG5-Atazanavir Hydrochloride]
MRT last [1, 3]: 1.46 ± 0.396 h | AUC [1, 3]: 42.4 ± 11.6 ng·h/mL | Cmax [1, 3]: 17 ± 4.2 ng/mL | half-life ([1]; male, Sprague-Dawley, rat, in vivo, read-out: t½(z) (converted)): 1.52 h | Cmin(24 hr) ([1]; 24 hr): BLQ

MRT last [1, 4]: 11.4 ± 7.37 h | concentration at 24 hr ([1]; male, Sprague-Dawley, rat, oral, 24 hr, read-out: Cmin(24 hr)): 2.64 ± 2.87 ng/mL | AUC [1, 4]: 78.5 ± 78.2 ng·h/mL | Cmax [1, 4]: 13.1 ± 12.4 ng/mL
Compound: COCCOCCOCCOCCOCCOC(=O)N[C@@H](C(=O)N[C@@H](Cc1ccccc1)[C@H](CN(Cc1ccc(-c2ccccn2)cc1)NC(=O)[C@H](NC(=O)OC)C(C)(C)C)OC(=O)CCCC(=O)O[C@@H]1[C@@H](O)[C@@H](O)O[C@@H]1[C@H](O)CO)C(C)(C)C [(5R,10S,11S,14R)-11-benzyl-5,14-di-tert-butyl-3,6,13,16-tetraoxo-8-(4-(pyridin-2-yl)benzyl)-2,17,20,23,26,29,32-heptaoxa-4,7,8,12,15-pentaazatritriacontan-10-yl (2R,3R,4R,5S)-2-((R)-1,2-dihydroxyethyl)-4,5-dihydroxytetrahydrofuran-3-yl glutarate]

AUCall Mean [2, 5]: 39.1 ng·h/mL | Cmax Mean [2, 5]: 6.90 ng/mL | MRT last Mean [2, 5]: 4.04 h | Tmax Median [2, 5]: 0.750 h
Compound: CCC(=O)OC(CN(Cc1ccc(-c2ccccn2)cc1)NC(=O)C(NC(=O)OC)C(C)(C)C)C(Cc1ccccc1)NC(=O)C(NC(=O)OCCOCCOCCOCCOCCOC)C(C)(C)C (stereo not drawn) [C2H5CO-mPEG5-ATV, mPEG5-Atazanavir Propionate]

Compound: COCCOCCOCCOCCOCCOC(=O)NC(C(=O)NC(Cc1ccccc1)C(CN(Cc1ccc(-c2ccccn2)cc1)NC(=O)C(NC(=O)OC)C(C)(C)C)OC(=O)CNC(=O)C(N)Cc1ccccc1)C(C)(C)C.Cl (stereo not drawn) [Phe-Gly-mPEG5-Atazanavir HCl, Phe-Gly-mPEG5-Atazanavir Hydrochloride]
C24 Mean [2, 5]: 0.169 | AUCall Mean [2, 5]: 33.7 ng·h/mL | Cmax Mean [2, 5]: 3.10 ng/mL | MRT last Mean [2, 5]: 12.0 h | Tmax Median [2, 5]: 12.0 h

AUCall Mean [2, 5]: 39.3 ng·h/mL | Cmax Mean [2, 5]: 9.46 ng/mL | MRT last Mean [2, 5]: 2.43 h | Tmax Median [2, 5]: 0.750 h
Compound: CCCCC(=O)O[C@@H](CN(Cc1ccc(-c2ccccn2)cc1)NC(=O)[C@@H](NC(=O)OC)C(C)(C)C)[C@H](Cc1ccccc1)NC(=O)[C@@H](NC(=O)OCCOCCOCCOCCOCCOC)C(C)(C)C [C4H9CO-PEG5-ATV, C4H9CO-mPEG5-atazanavir]

AUCall Mean [2, 6]: 70.4 ng·h/mL | Cmax Mean [2, 6]: 11.8 ng/mL | MRT last Mean [2, 6]: 4.45 h | Tmax* Median [2, 6]: 0.500 h
Compound: COCCOCCOCCOC(=O)NC(C(=O)NC(Cc1ccccc1)C(CN(Cc1ccc(-c2ccccn2)cc1)NC(=O)C(NC(=O)OC)C(C)(C)C)OC(=O)C(N)C(C)C)C(C)(C)C.Cl [mPEG3-ATV-L-valine, mPEG3-Atazanavir-L-valine HCl]

Compound: CCCC(=O)OC(CN(Cc1ccc(-c2ccccn2)cc1)NC(=O)C(NC(=O)OC)C(C)(C)C)C(Cc1ccccc1)NC(=O)C(NC(=O)OCCOCCOCCOCCOCCOC)C(C)(C)C (stereo not drawn) [C3H7CO-mPEG5-ATV, mPEG5-Atazanavir Butyrate]
C24 Mean [2, 5]: 0.00 | AUCall Mean [2, 5]: 3.92 ng·h/mL | Cmax Mean [2, 5]: 1.44 ng/mL | MRT last Mean [2, 5]: 0.984 h | Tmax Median [2, 5]: 1.00 h

AUCall Mean [2, 6]: 7.72 ng·h/mL | Cmax Mean [2, 6]: 18.7 ng/mL | MRT last Mean [2, 6]: 0.640 h | Tmax* Median [2, 6]: 0.250 h
Compound: CCCCCCCCCCCCCCCCOCC(COP(=O)(O)OC(CN(Cc1ccc(-c2ccccn2)cc1)NC(=O)C(NC(=O)OC)C(C)(C)C)C(Cc1ccccc1)NC(=O)C(NC(=O)OCCOCCOCCOC)C(C)(C)C)OC (stereo not drawn) [PEG3-Atazanavir Monophospholipid, mPEG3-atazanavir monophospholipid]

AUCall Mean [2, 5]: 32.7 ng·h/mL | Cmax Mean [2, 5]: 3.74 ng/mL | MRT last Mean [2, 5]: 4.92 h | Tmax Median [2, 5]: 2.00 h
Compound: COCCOCCOCCOCCOCCOC(=O)NC(C(=O)NC(Cc1ccccc1)C(CN(Cc1ccc(-c2ccccn2)cc1)NC(=O)C(NC(=O)OC)C(C)(C)C)OCOCCOC)C(C)(C)C (stereo not drawn) [mPEG5-ATV-Methyl ethyl methyl ether, mPEG5-Atazanavir Methyl Ethyl Methyl Ether]

Compound: CCCC(=O)O[C@@H](CN(Cc1ccc(-c2ccccn2)cc1)NC(=O)[C@@H](NC(=O)OC)C(C)(C)C)[C@H](Cc1ccccc1)NC(=O)[C@@H](NC(=O)OCCOCCOCCOC)C(C)(C)C [C3H7CO-mPEG3-ATV, mPEG3-Atazanavir Butyrate]
C24 Mean [2, 6]: 0.00 | AUCall Mean [2, 6]: 11.4 ng·h/mL | Cmax Mean [2, 6]: 3.08 ng/mL | MRT last Mean [2, 6]: 1.56 h | Tmax* Median [2, 6]: 1.00 h

AUCall Mean [2, 7]: 66.0 ng·h/mL | Cmax Mean [2, 7]: 11.1 ng/mL | MRT last Mean [2, 7]: 4.47 h | Tmax Median [2, 7]: 2.00 h
Compound: CCCCCCCC(=O)OC(CN(Cc1ccc(-c2ccccn2)cc1)NC(=O)C(NC(=O)OC)C(C)(C)C)C(Cc1ccccc1)NC(=O)C(NC(=O)OCCOCCOCCOCCOCCOCCOC)C(C)(C)C (stereo not drawn) [C7H15CO-mPEG6-ATV, O-Octanoyl-mPEG6-Atazanavir]

AUCall Mean [2, 6]: 4.10 ng·h/mL | Cmax Mean [2, 6]: 0.951 ng/mL | MRT last Mean [2, 6]: 1.93 h | Tmax* Median [2, 6]: 2.00 h
Compound: COCCOCCOCCOC(=O)N[C@H](C(=O)N[C@@H](Cc1ccccc1)[C@H](CN(Cc1ccc(-c2ccccn2)cc1)NC(=O)[C@@H](NC(=O)OC)C(C)(C)C)OCOCCOC)C(C)(C)C [mPEG3 ATV-Methyl ethyl methyl ether, mPEG3-Atazanavir Methyl Ethyl Methyl Ether]

AUCall Mean [2, 5]: 23.1 ng·h/mL | Cmax Mean [2, 5]: 1.52 ng/mL | MRT last Mean [2, 5]: 10.9 h | Tmax Median [2, 5]: 7.00 h
Compound: COCCOCCOCCOCCOCCOC(=O)N[C@H](C(=O)N[C@@H](Cc1ccccc1)[C@H](CN(Cc1ccc(-c2ccccn2)cc1)NC(=O)[C@@H](NC(=O)OC)C(C)(C)C)OP(=O)(O)O)C(C)(C)C [mPEG5-ATV-phosphate, mPEG5-atazanavir phosphate]

AUCall Mean [2, 5]: 389 ng·h/mL | Cmax Mean [2, 5]: 57.6 ng/mL | MRT last Mean [2, 5]: 9.61 h | Tmax Median [2, 5]: 0.750 h
Compound: COCCOCCOCCOCCOCCOC(=O)N[C@H](C(=O)N[C@@H](Cc1ccccc1)[C@@H](O)CN(Cc1ccc(-c2ccccn2)cc1)NC(=O)[C@@H](NC(=O)OC)C(C)(C)C)C(C)(C)C [PEG5-ATV, mPEG5-atazanavir]

AUCall Mean [2, 6]: 5.63 ng·h/mL | Cmax Mean [2, 6]: 2.43 ng/mL | MRT last Mean [2, 6]: 1.01 h | Tmax* Median [2, 6]: 0.750 h
Compound: COCCOCCOCCOC(=O)N[C@H](C(=O)N[C@@H](Cc1ccccc1)[C@H](CN(Cc1ccc(-c2ccccn2)cc1)NC(=O)[C@@H](NC(=O)OC)C(C)(C)C)OC(C)=O)C(C)(C)C [Acetyl-mPEG3-ATV, O-Acetyl-mPEG3-Atazanavir]

AUCall Mean [2, 5]: 9.14 ng·h/mL | Cmax Mean [2, 5]: 1.09 ng/mL | MRT last Mean [2, 5]: 6.89 h | Tmax Median [2, 5]: 1.00 h
Compound: COCCOCCOCCOCCOCCOC(=O)NC(C(=O)NC(Cc1ccccc1)C(CN(Cc1ccc(-c2ccccn2)cc1)NC(=O)C(NC(=O)OC)C(C)(C)C)OC(=O)C(N)C(C)C)C(C)(C)C.Cl [mPEG5-ATV-L-valine, mPEG5-Atazanavir-L-valine HCl]

Compound: CCOCO[C@@H](CN(Cc1ccc(-c2ccccn2)cc1)NC(=O)[C@@H](NC(=O)OC)C(C)(C)C)[C@H](Cc1ccccc1)NC(=O)[C@@H](NC(=O)OCCOCCOCCOCCOCCOC)C(C)(C)C [Methyl ethyl ether mPEG5-ATV, mPEG5-Atazanavir Methyl Ethyl Ether]
C24 Mean [2, 5]: 2.7 | AUCall Mean [2, 5]: 489 ng·h/mL | Cmax Mean [2, 5]: 95.1 ng/mL | MRT last Mean [2, 5]: 6.19 h | Tmax Median [2, 5]: 1.00 h

AUCall Mean [2, 7]: 78.1 ng·h/mL | Cmax Mean [2, 7]: 21.4 ng/mL | MRT last Mean [2, 7]: 5.01 h | Tmax Median [2, 7]: 0.500 h
Compound: CCCCCC(=O)O[C@@H](CN(Cc1ccc(-c2ccccn2)cc1)NC(=O)[C@@H](NC(=O)OC)C(C)(C)C)[C@H](Cc1ccccc1)NC(=O)[C@@H](NC(=O)OCCOCCOCCOCCOCCOCCOC)C(C)(C)C [C5H11CO-mPEG6-ATV, C5H11CO-mPEG6-atazanavir]

AUCall Mean [2, 7]: 3.07 ng·h/mL | Cmax Mean [2, 7]: 0.634 ng/mL | MRT last Mean [2, 7]: 15.1 h | Tmax Median [2, 7]: 1.00 h
Compound: CCNC(=O)OC(CN(Cc1ccc(-c2ccccn2)cc1)NC(=O)C(NC(=O)OC)C(C)(C)C)C(Cc1ccccc1)NC(=O)C(NC(=O)OCCOCCOCCOCCOCCOCCOC)C(C)(C)C (stereo not drawn) [mPEG6-ATV-ethylcarbamate, mPEG6-Atazanavir-NH-ethyl carbamate]

Reference: patent US20120108501A1, “Protease Inhibitors” (priority 2009, published 2012)
